The OligoGym collection
Several values for one entry are separate records, joined by “and”; a condition that tells them apart may be missing. Identical values can stand only once. After the bases stand the sugars from the 5' end (letter, count) and the backbone: PS all phosphorothioate, else s phosphorothioate and o phosphodiester by linkage. Methylation of C is not given here. e = 2'-O-(2-methoxyethyl) (MOE); k = constrained ethyl (cEt); d = 2'-deoxy (DNA)

Assays:
[1] = target: SOD1; details: ASO
[2] = target: APOL1; details: ASO

## AAACTATACAAATCTTC (sugars e2 k2 d8 k2 e3, PS)
[1]; HepG2, 5 µM
  target mRNA inhibition: 55%

## AAAGTCACACAATTACACTT (sugars e5 d10 e5, PS)
[1]; HepG2, 5 µM
  target mRNA inhibition: 15%

## AAAGTGAGGACCTGCAC (sugars e3 k2 d7 k2 e3, PS)
[1]; HepG2, 3 µM
  target mRNA inhibition: 20%

## AAATACAGGTCATTGAA (sugars e2 k2 d9 k2 e2, PS)
[1]; HepG2, 5 µM
  target mRNA inhibition: 47%

## AAATCAGTTTCTCACTACAG (sugars e5 d10 e5, PS)
[1]; HepG2, 5 µM
  target mRNA inhibition: 0%

## AAATTGATGATGCCCTGCAC (sugars e5 d10 e5, PS)
[1]; HepG2, 4 µM
  target mRNA inhibition: 14%

## AACAGATGAGTTAAGGG (sugars e2 k2 d9 k2 e2, PS)
[1]; HepG2, 0.1875 µM
  target mRNA inhibition: 27%
[1]; HepG2, 0.75 µM
  target mRNA inhibition: 49%
[1]; HepG2, 3 µM
  target mRNA inhibition: 82%
[1]; HepG2, 4 µM
  target mRNA inhibition: 86% and 82%
[1]; HepG2, 12 µM
  target mRNA inhibition: 89% and 92%

## AACATGCCTCTCTTCAT (sugars e3 k2 d7 k2 e3, PS)
[1]; HepG2, 3 µM
  target mRNA inhibition: 13%

## AACTATACAAATCTTCC (sugars e2 k2 d9 k2 e2, PS)
[1]; HepG2, 5 µM
  target mRNA inhibition: 63%

## AACTCGCTAGGCCACGCCGA (sugars e5 d10 e5, PS)
[1]; HepG2, 4 µM
  target mRNA inhibition: 44%

## AAGTCACACAATTACAC (sugars e2 k2 d9 k2 e2, PS)
[1]; HepG2, 5 µM
  target mRNA inhibition: 37%

## AAGTCATCTGCTTTTTC (sugars e3 k2 d7 k2 e3, PS)
[1]; HepG2, 3 µM
  target mRNA inhibition: 83%

## AAGTCTGGCAAAATACA (sugars e3 k2 d7 k2 e3, PS)
[1]; HepG2, 3 µM
  target mRNA inhibition: 10%

## AAGTGAGGACCTGCACT (sugars e3 k2 d7 k2 e3, PS)
[1]; HepG2, 3 µM
  target mRNA inhibition: 16%

## AATACAGGTCATTGAAA (sugars e3 k2 d7 k2 e3, PS)
[1]; HepG2, 3 µM
  target mRNA inhibition: 6%

## AATCAGTTTCTCACTAC (sugars e2 k2 d9 k2 e2, PS)
[1]; HepG2, 5 µM
  target mRNA inhibition: 53%

## AATCTTCCAAGTGATCA (sugars e2 k2 d9 k2 e2, PS)
[1]; HepG2, 5 µM
  target mRNA inhibition: 38%

## AATGGTCTCCTGAGAGTGAG (sugars e5 d10 e5, PS)
[1]; HepG2, 5 µM
  target mRNA inhibition: 22%

## AATTACACCACAAGCCA (sugars e2 k2 d8 k2 e3, PS)
[1]; HepG2, 4 µM
  target mRNA inhibition: 62%

## AATTACACCACAAGCCA (sugars e3 k2 d7 k2 e3, PS)
[1]; HepG2, 3 µM
  target mRNA inhibition: 21%

## AATTTGGATTCTTTTAATAG (sugars e5 d10 e5, PS)
[1]; HepG2, 5 µM
  target mRNA inhibition: 14%

## ACAAGTTTAATACCCAT (sugars e2 k2 d9 k2 e2, PS)
[1]; HepG2, 5 µM
  target mRNA inhibition: 61%

## ACAAGTTTAATACCCAT (sugars e3 k2 d7 k2 e3, PS)
[1]; HepG2, 3 µM
  target mRNA inhibition: 23%

## ACACCACAAGCCAAACGACT (sugars e5 d10 e5, PS)
[1]; HepG2, 5 µM
  target mRNA inhibition: 49%

## TTTATACCAGTGTCTT (sugars k2 d4 e3 k2 d5, PS)
[2]; A431, 2 µM
  target mRNA inhibition: 88%

## TTTATACCAGTGTCTT (sugars k2 d4 e4 k2 d4, PS)
[2]; A431, 2 µM
  target mRNA inhibition: 89%

## TTTATACCAGTGTCTT (sugars kkkddddkekekdddd, PS)
[2]; A431, 2 µM
  target mRNA inhibition: 76%

## TTTGTAAGTGCAACCA (sugars k3 d5 k3 d5, PS)
[2]; A431, 2 µM
  target mRNA inhibition: 98%

## TTTGTAAGTGCAACCA (sugars k4 d9 k3, PS)
[2]; A431, 0.04 µM
  target mRNA inhibition: 37% and 23%
[2]; A431, 0.0625 µM
  target mRNA inhibition: 70%
[2]; A431, 0.25 µM
  target mRNA inhibition: 91%
[2]; A431, 1 µM
  target mRNA inhibition: 97% and 96% and 93%

## TTTGTAAGTGCAACCA (sugars kddddkekekeddddd, PS)
[2]; A431, 2 µM
  target mRNA inhibition: 95%

## TTTGTAAGTGCAACCA (sugars kekddddeekkddddd, PS)
[2]; A431, 0.0156 µM
  target mRNA inhibition: 21%
[2]; A431, 0.0625 µM
  target mRNA inhibition: 46%
[2]; A431, 0.25 µM
  target mRNA inhibition: 84%
[2]; A431, 1 µM
  target mRNA inhibition: 96%
[2]; A431, 2 µM
  target mRNA inhibition: 99%

## TTTGTAAGTGCAACCA (sugars kkdddddkekeddddd, PS)
[2]; A431, 0.0156 µM
  target mRNA inhibition: 36%
[2]; A431, 0.0625 µM
  target mRNA inhibition: 46%
[2]; A431, 0.25 µM
  target mRNA inhibition: 78%
[2]; A431, 1 µM
  target mRNA inhibition: 91%
[2]; A431, 2 µM
  target mRNA inhibition: 92%

## TTTGTAAGTGCAACCA (sugars kkddddkdkdkddddd, PS)
[2]; A431, 2 µM
  target mRNA inhibition: 99%

## TTTGTAAGTGCAACCA (sugars kkkddddkdkdkdddd, PS)
[2]; A431, 2 µM
  target mRNA inhibition: 71%

## TTTTGTAAGTGCAACC (sugars k2 d4 e3 k2 d5, PS)
[2]; A431, 2 µM
  target mRNA inhibition: 99%

## TTTTGTAAGTGCAACC (sugars k4 d9 k3, PS)
[2]; A431, 0.0625 µM
  target mRNA inhibition: 47%
[2]; A431, 0.25 µM
  target mRNA inhibition: 84%
[2]; A431, 1 µM
  target mRNA inhibition: 95%
